Assay results reported in paper PMC12844237, “A Novel Quinolone JH62 (E-2-(Tridec-4-en-1-yl)-quinolin-4(1H)-one) from Pseudomonas aeruginosa Exhibits Potent Anticancer Activity” (Microorganisms, 2025).

Columns and labels:
[1] = tested on: A549 injected xenograft mouse model; test: Tumorigenicity assay, xenograft mouse model; type: in vivo, BALB/c nude mice
Protocol: Tumorigenicity assays were performed using BALB/c nude mice, adapted from previously described protocols with slight modifications. To establish the xenograft cancer model, cancer cells (1 × 10^6) were subcutaneously injected into the right dorsal side of 6-week-old male BALB/c nude mice to induce tumor formation. The mice were randomly divided into 2 groups (n = 15). One group served as the control, and the other groups were treated with JH62 at doses of 10 mg/kg, via intraperitoneal injection twice a week. The mice in the control group were administered an equal volume of DMSO as the solvent control. The tumor sizes were measured weekly for three weeks. After that, the mice were sacrificed, and the tumors were isolated and weighed. All animal studies were approved by the Ethics Committee of South China Agricultural University.
To evaluate the efficacy of JH62 in inhibiting tumorigenesis in vivo, a cancer xenograft model was established by transplanting cancer cells into the right flank of nude mice. The mice were treated with JH62 (10 mg/kg body weight) twice weekly for three weeks, and tumor volume changes were regularly monitored during this period. […] After 20 days of treatment, the average weight of solid tumors in the JH62-treated group was 186.3 mg, compared to 693.4 mg in the control group. The average tumor size in the control group was approximately 900 mm^3, while in the JH62-treated group, it was only about 190 mm^3 (Figure 2H,I).

[2] = tested on: BxPC3: human pancreatic cancer cell lines; test: WST-1 cell viability, BxPC3; type: cell-based; settings: BXPC-3, BxPC3 (pancreatic) cancer cell line
Description: (§1) Different cells were utilized as follows: MEF: murine embryonic fibroblast (RRID: CVCL_L690); AML12: mouse liver cell lines (RRID: CVCL_0140); WI-38: human lung fibroblast cell lines (RRID: CVCL_0579); THLE-2: human liver epithelial cell lines (RRID: CVCL_3803); A549: human lung cancer cell lines (RRID: CVCL_0023); HEPG2: human liver cancer cell lines (RRID: CVCL_0027); HEP3B: human hepatoma cell lines (RRID: CVCL_0326); BxPC3: human pancreatic cancer cell lines (RRID: CVCL_0186); U87: human primary glioblastoma cell lines (RRID: CVCL_0022); DU145: human prostate cancer cell lines (RRID: CVCL_0105); MCF7: human breast cancer cell lines (RRID: CVCL_0031); HeLa: human cervical cancer cell lines (RRID: CVCL_0030); HCT116: human colon cancer cell lines (RRID: CVCL_0291). Cells were maintained in Dulbecco’s modified Eagle’s medium (DMEM, Gibco) supplemented with L-glutamine (Lonza) (2 mM), 10% fetal bovine serum (FBS, Hyclone), 1 × non-essential amino acids, and sodium pyruvate (1 mM). THLE-2 cells were maintained in THLE-2 Cell Complete Medium (Zhong Qiao Xin Zhou, Shanghai, China). Cells were incubated at 37 °C in a humidified incubator with 5% CO2. […]
(§2) Cell viability was assessed using the WST-1 assay, based on a previously reported method with slight modifications. […] Absorbance at OD450 was measured using a microplate reader (Synergy H1; BioTek Instruments, Winooski, VT, USA).

[3] = tested on: THLE-2: human liver epithelial cell lines; test: WST-1 cell viability, THLE-2; type: cell-based; settings: THLE-2, non-cancer cell line
Description: as §1, §2

[4] = tested on: HEPG2: human liver cancer cell lines; test: WST-1 cell viability, HEPG2; type: cell-based; settings: HEPG2 (liver) cancer cell line
Description: as §1, §2

[5] = tested on: pqs gene cluster in ΔpqsA mutant strain; test: Effect of exogenous JH62 on transcription of the pqs gene cluster; type: cell-based, Pseudomonas aeruginosa; settings: ΔpqsA mutant supplemented with exogenous JH62
Description: Since the pqs gene cluster is responsible for JH62 biosynthesis, we determined whether JH62 itself could regulate the expression of this cluster, potentially establishing a feedback loop. To this end, we supplemented the JH62-deficient ΔpqsA mutant with exogenous JH62 and assessed the pqs cluster transcription.

[6] = tested on: HeLa: human cervical cancer cell lines; test: WST-1 cell viability, HeLa; type: cell-based; settings: HeLa (cervical) cancer cell line
Description: as §1, §2

[7] = tested on: MCF7: human breast cancer cell lines; test: WST-1 cell viability, MCF7; type: cell-based; settings: MCF7 (breast) cancer cell line
Description: as §1, §2

LC3B in A549 cells = test: Immunofluorescence staining for LC3B; type: cell-based, human; settings: A549, JH62 over 2–24 h
Description: We next investigated whether autophagy contributes to JH62-induced cell death.

[8] = tested on: HCT116: human colon cancer cell lines; test: WST-1 cell viability, HCT116; type: cell-based; settings: HCT-116, HCT116 (colon) cancer cell line
Description: as §1, §2

A549 lung cancer cells = test: Cell death inhibitor rescue (zVAD-fmk, Nec-1); type: cell-based, human; settings: A549, zVAD-fmk and Nec-1 individually or in combination
Description: Therefore, we investigated whether zVAD-fmk and Nec-1 could attenuate JH62-induced cell death in A549 lung cancer cells.

[9] = tested on: DU145: human prostate cancer cell lines; test: WST-1 cell viability, DU145; type: cell-based; settings: DU-145, DU145 (prostate) cancer cell line
Description: as §1, §2

[10] = tested on: A549 lung cancer cell colonies; test: Cell colony formation assay; type: cell-based, human; settings: compared to the control group
Description: The cell colony formation assay, an in vitro method used to evaluate the proliferative capacity of cancer cells, was employed.

cancer cell lines = test: WST-1 cell viability, panel of cancer cell lines; type: cell-based; settings: Homo sapiens; across the tested cancer cell lines
Protocol: Cell viability was assessed using the WST-1 assay, based on a previously reported method with slight modifications. Briefly, cells were seeded at 1 × 10^4 cells per well in 96-well plates and then treated with different doses of JH62 or DOX for 0–72 h. The cells used included non-cancer cells (MEF, AML12, WI-38, and THLE-2) and cancer cells (A549, HEPG2, HEP3B, BxPC3, U87, DU145, MCF7, HeLa, and HCT116). The WST-1 reagent (Roche, Shanghai, China) was added to each well (10% vol/vol final concentration), followed by incubation for 3 h at 37 °C. Absorbance at OD450 was measured using a microplate reader (Synergy H1; BioTek Instruments, Winooski, VT, USA).

SMILES: CCCCCCCC/C=C/CCCc1cc(=O)c2ccccc2[nH]1 [JH62, E-2-(tridec-4-en-1-yl)-quinolin-4(1H)-one]
- average weight of solid tumors ([1]; 10 mg/kg intraperitoneal twice weekly, after 20 days of treatment, control 693.4 mg): 186.3 mg
- average tumor size ([1]; 10 mg/kg intraperitoneal twice weekly, three weeks, control approximately 900 mm^3): about 190 mm^3
- reduced tumor volume ([1]; xenograft mice, 10 mg/kg): 79%
- reduced tumor weight ([1]; xenograft mice, 10 mg/kg): 73%
- IC50 [2]: 15 ± 0.4 µM
- IC50 [3]: 27.3 ± 4.9 µM
- IC50 [4]: 17.2 ± 0.6 µM
- pqsH transcription [5]: unaffected
- transcription of pqsA, pqsB, pqsC, pqsD, and pqsE [5]: markedly upregulated
- IC50 [6]: 13.6 ± 2.7 µM
- IC50 [7]: 13.9 ± 1.3 µM
- LC3B puncta (autophagosome formation) (LC3B in A549 cells): progressively increased both the intensity and number of LC3B puncta
- IC50 [8]: 8.6 ± 0.1 µM
- cell death type (reversal by zVAD-fmk and Nec-1) (A549 lung cancer cells): not associated with apoptosis or necroptosis
- IC50 [9]: 13.8 ± 3.3 µM
- reduced the number of A549 lung cancer cell colonies ([10]; 6.3 μM): 34%
- reduced the number of A549 lung cancer cell colonies ([10]; 12.5 μM): 71%
- IC50 (cancer cell lines): < 20 µM
